Laboratory results published in patent US20220267352A1, “RAPAMYCIN ANALOGS AND USES THEREOF” (Anakuria Therapeutics, Inc., priority 2021, published 2022).
One block for each compound: values may come before it.

How the values were obtained:
Format in all cases: cell-based
mTORC1 over mTORC2 = mTORC1 over mTORC2 selectivity by comparing pS6K1 and pAKT IC50; details: by comparing pS6K1 and pAKT IC50, 90 min
Procedure, shortened: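 MCF-7 cells were treated with compounds (0.5% final DMSO) for 90 minutes in one protocol and 2 hours in the other, then lysed. Phospho-signal in lysates was read by bead-based donor/acceptor proximity assay. pS6K1 and pAKT IC50 values were compared to judge mTORC1 over mTORC2 selectivity, at 90 min and at 24 hrs.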

[1] = tested on: p-p70 S6 Kinase (Thr389) in MCF-7 cells; assay: AlphaLISA Ultra pS6K1 assay; details: Homo sapiens, 1.5 h; MCF7 cells, 90 min
Procedure, shortened: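 Phospho-S6K1 (Thr389) quantified by AlphaLISA Ultra read-out (2 h acceptor, then 2 h donor beads) in lysates of MCF-7 cells. Cells were plated 20–24 h before, refed 2 h, exposed to compounds for 90 min at 0.5% final DMSO, and lysates stored at −80 °C.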

[2] = tested on: p-Akt 1/2/3 (Ser473) in MCF-7 cells; assay: AlphaLISA Ultra pAKT assay; details: Homo sapiens, 1.5 h; MCF7 cells, 90 min
Procedure, shortened: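 MCF-7 cells (16,000˜20,000 per well in 36 μL medium) were seeded in Corning 3701 plates for 20˜24 hour, refreshed with new medium for 90 minutes, then given 12 μL of 4× compound (0.5% final DMSO). Cells were lysed with 2× lysis buffer, and lysate was analyzed by AlphaLISA Ultra pAKT using acceptor and donor beads, read on an EnSpire reader.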

SMILES: CO[C@@H]1C[C@H](C[C@@H](C)[C@@H]2CC(=O)[C@H](C)/C=C(\C)[C@@H](O)[C@@H](OC)C(=O)[C@H](C)C[C@H](C)/C=C/C=C/C=C(\C)C(OCCOC3CCOCC3)C[C@@H]3CC[C@@H](C)[C@@](O)(O3)C(=O)C(=O)N3CCCC[C@H]3C(=O)O2)CC[C@H]1OP(C)(C)=O (stereo partly drawn) [I-86, (1R,9S,12S,15R,16E,18R,19R,21R,23S,24E,26E,28E,32S,35R)-12-[(1R)-2-[(1S,3R,4R)-4-dimethylphosphoryloxy-3-methoxy-cyclohexyl]-1-methyl-ethyl]-1,18-dihydroxy-19-methoxy-15,17,21,23,29,35-hexamethyl-30-(2-tetrahydropyran-4-yloxyethoxy)-11,36-dioxa-4-azatricyclo[30.3.1.0^4,9]hexatriaconta-16,24,26,28-tetraene-2,3,10,14,20-pentone]
mTORC1 selective @ 90 min (mTORC1 over mTORC2): Yes
IC50 [1]: < 1 nM
IC50 [2]: ≥ 1000 nM

SMILES: CO[C@@H]1C[C@H](C[C@@H](C)[C@@H]2CC(=O)[C@H](C)/C=C(\C)[C@@H](O)[C@@H](OC)C(=O)[C@H](C)C[C@H](C)/C=C/C=C/C=C(\C)C(OCCOC3COC3)C[C@@H]3CC[C@@H](C)[C@@](O)(O3)C(=O)C(=O)N3CCCC[C@H]3C(=O)O2)CC[C@H]1O (stereo partly drawn) [I-88, (23E,25E,27E,28E,32R,33S,34R,35R,37S,39S,41R,42S,44R,45R,54R)-44,54-dihydroxy-42-[(1R)-2-[(1S,3R,4R)-4-hydroxy-3-methoxy-cyclohexyl]-1-methyl-ethyl]-45-methoxy-32,33,34,35,46,47-hexamethyl-41-[2-(oxetan-3-yloxy)ethoxy]-65,66-dioxa-55-azatricyclohexatriaconta-23,25,27(46),28(47)-tetraene-48,49,50,51,52-pentone]
mTORC1 selective @ 90 min (mTORC1 over mTORC2): Yes
IC50 [1]: 1 to 10 nM
IC50 [2]: ≥ 1000 nM

SMILES: CO[C@@H]1C[C@H](C[C@@H](C)[C@@H]2CC(=O)[C@H](C)/C=C(\C)[C@@H](O)[C@@H](OC)C(=O)[C@H](C)C[C@H](C)/C=C/C=C/C=C(\C)C(OCCOC3COC3)C[C@@H]3CC[C@@H](C)[C@@](O)(O3)C(=O)C(=O)N3CCCC[C@H]3C(=O)O2)CC[C@H]1OP(C)(C)=O (stereo partly drawn) [I-89, (1R,9S,12S,15R,16E,18R,19R,21R,23S,24E,26E,28E,32S,35R)-12-[(1R)-2-[(1S,3R,4R)-4-dimethylphosphoryloxy-3-methoxy-cyclohexyl]-1-methyl-ethyl]-1,18-dihydroxy-19-methoxy-15,17,21,23,29,35-hexamethyl-30-[2-(oxetan-3-yloxy)ethoxy]-11,36-dioxa-4-azatricyclo[30.3.1.04,9]hexatriaconta-16,24,26,28-tetraene-2,3,10,14,20-pentone]
mTORC1 selective @ 90 min (mTORC1 over mTORC2): Yes
IC50 [1]: 1 to 10 nM
IC50 [2]: ≥ 1000 nM

SMILES: CNCCOCCOC1C[C@@H]2CC[C@@H](C)[C@@](O)(O2)C(=O)C(=O)N2CCCC[C@H]2C(=O)O[C@H]([C@H](C)C[C@@H]2CC[C@@H](OC)[C@H](OC)C2)CC(=O)[C@H](C)/C=C(\C)[C@@H](OC)[C@@H](OC)C(=O)[C@H](C)C[C@H](C)/C=C/C=C/C=C/1C (stereo partly drawn) [I-90, (24E,26E,28E,29E,35R,36S,37R,38R,40S,42S,45S,46R,47R,56R)-45-[(1R)-2-[(1S,3R,4R)-3,4-dimethoxycyclohexyl]-1-methyl-ethyl]-56-hydroxy-46,47-dimethoxy-35,36,37,38,48,49-hexamethyl-44-[2-[2-(methylamino)ethoxy]ethoxy]-65,66-dioxa-58-azatricyclohexatriaconta-24,26,28(48),29(49)-tetraene-50,51,52,53,54-pentone]
mTORC1 selective @ 90 min (mTORC1 over mTORC2): Yes
IC50 [1]: 10 to 100 nM
IC50 [2]: ≥ 1000 nM

SMILES: CO[C@@H]1C[C@H](C[C@@H](C)[C@@H]2CC(=O)[C@H](C)/C=C(\C)[C@@H](O)[C@@H](OC)C(=O)[C@H](C)C[C@H](C)/C=C/C=C/C=C(\C)C(OCCOC3COC3)C[C@@H]3CC[C@@H](C)[C@@](O)(O3)C(=O)C(=O)N3CCCC[C@H]3C(=O)O2)CC[C@H]1OCCCN1CC2(COC2)C1 (stereo partly drawn) [I-91, (27E,29E,31E,32E,39R,40S,41R,42R,44S,46S,49S,51R,52R,62R)-51,62-dihydroxy-52-methoxy-49-[(1R)-2-[(1S,3R,4R)-3-methoxy-4-[3-(2-oxa-6-azaspiro[3.3]heptan-6-yl)propoxy]cyclohexyl]-1-methyl-ethyl]-39,40,41,42,53,54-hexamethyl-48-[2-(oxetan-3-yloxy)ethoxy]-74,75-dioxa-63-azatricyclohexatriaconta-27,29,31(53),32(54)-tetraene-55,56,57,58,59-pentone]
mTORC1 selective @ 90 min (mTORC1 over mTORC2): Yes
IC50 [1]: 1 to 10 nM
IC50 [2]: ≥ 1000 nM

The next lines start with results.

IC50 [1]: 1 to 10 nM
IC50 [2]: ≥ 1000 nM
SMILES: CO[C@@H]1C[C@H](C[C@@H](C)[C@@H]2CC(=O)[C@H](C)/C=C(\C)[C@@H](O)[C@@H](OC)C(=O)[C@H](C)C[C@H](C)/C=C/C=C/C=C(\C)[C@H](OC[C@@H]3COCCO3)C[C@@H]3CC[C@@H](C)[C@@](O)(O3)C(=O)C(=O)N3CCCC[C@H]3C(=O)O2)CC[C@H]1OCCO [I-84, (1R,9S,12S,15R,16E,18R,19R,21R,23S,24E,26E,28E,30R,32S,35R)-30-[[(2S)-1,4-dioxan-2-yl]methoxy]-1,18-dihydroxy-12-[(1R)-2-[(1S,3R,4R)-4-(2-hydroxyethoxy)-3-methoxy-cyclohexyl]-1-methyl-ethyl]-19-methoxy-15,17,21,23,29,35-hexamethyl-11,36-dioxa-4-azatricyclo[30.3.1.04,9]hexatriaconta-16,24,26,28-tetraene-2,3,10,14,20-pentone]
mTORC1 selective @ 90 min (mTORC1 over mTORC2): Yes

IC50 [1]: 10 to 100 nM
IC50 [2]: ≥ 1000 nM
SMILES: CO[C@@H]1C[C@H](C[C@@H](C)[C@@H]2CC(=O)[C@H](C)/C=C(\C)[C@@H](O)[C@@H](OC)C(=O)[C@H](C)C[C@H](C)/C=C/C=C/C=C(\C)[C@H](OCC3COCCO3)C[C@@H]3CC[C@@H](C)[C@@](O)(O3)C(=O)C(=O)N3CCCC[C@H]3C(=O)O2)CC[C@H]1OCCCO (stereo partly drawn) [I-92, (24E,26E,28E,29E,35R,36S,37R,38R,40S,42S,44R,45S,47R,48R,57R)-44-(1,4-dioxan-2-ylmethoxy)-47,57-dihydroxy-45-[(1R)-2-[(1S,3R,4R)-4-(3-hydroxypropoxy)-3-methoxy-cyclohexyl]-1-methyl-ethyl]-48-methoxy-35,36,37,38,49,50-hexamethyl-69,70-dioxa-58-azatricyclohexatriaconta-24,26,28(49),29(50)-tetraene-51,52,53,54,55-pentone]
mTORC1 selective @ 90 min (mTORC1 over mTORC2): Yes

IC50 [1]: 1 to 10 nM
IC50 [2]: ≥ 1000 nM
SMILES: CO[C@@H]1C[C@H](C[C@@H](C)[C@@H]2CC(=O)[C@H](C)/C=C(\C)[C@@H](O)[C@@H](OC)C(=O)[C@H](C)C[C@H](C)/C=C/C=C/C=C(\C)[C@@H](OCC3COCCO3)C[C@@H]3CC[C@@H](C)[C@@](O)(O3)C(=O)C(=O)N3CCCC[C@H]3C(=O)O2)CC[C@H]1OCCCO (stereo partly drawn) [I-93, (24E,26E,28E,29E,35R,36S,37R,38R,40S,42S,44S,45S,47R,48R,57R)-44-(1,4-dioxan-2-ylmethoxy)-47,57-dihydroxy-45-[(1R)-2-[(1S,3R,4R)-4-(3-hydroxypropoxy)-3-methoxy-cyclohexyl]-1-methyl-ethyl]-48-methoxy-35,36,37,38,49,50-hexamethyl-69,70-dioxa-58-azatricyclohexatriaconta-24,26,28(49),29(50)-tetraene-51,52,53,54,55-pentone]
mTORC1 selective @ 90 min (mTORC1 over mTORC2): Yes
